US6887896B1, “7-[(7-Alkoxy)-chrom-3-en-6-yl]-heptatrienoic acid and 7-[(3-alkoxy)-5,6-dihydronaphthalen-2-yl]-heptatrienoic acid derivatives having serum glucose reducing activity” (Allergan, Inc., priority 2003, dated 2005)

Key:
RARβ = target: T1, RARβ (Homo sapiens, UniProt P10826); test: chimeric receptor transactivation assay, RARβ; type: cell-based; details: for EC50: chimeric receptor transactivation, read-out: RAR Trans. EC50 β; for Emax: percentage compared to the standard compound, read-out: RAR Trans. efficacy (number in parentheses) β
T1 sequence (P10826 183-417 limits assumed): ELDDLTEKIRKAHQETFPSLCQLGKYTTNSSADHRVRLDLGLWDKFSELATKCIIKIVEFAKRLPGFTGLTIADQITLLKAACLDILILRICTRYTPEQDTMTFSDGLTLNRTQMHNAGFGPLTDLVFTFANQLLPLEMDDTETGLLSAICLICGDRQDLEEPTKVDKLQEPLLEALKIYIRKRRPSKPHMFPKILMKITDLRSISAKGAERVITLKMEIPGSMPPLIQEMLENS
From the text: (§1) Specifically, one such assay is a chimeric receptor transactivation assay which tests for agonist-like activity in the R RAPE and RAR7 receptor subtypes, and which is based on work published by Feigner, P. L. and Holm, M (1989) Focus, 112 is described in detail in U.S. Pat. No. 5,455,265. The specification of U.S. Pat. No. 5,455,265 is hereby expressly incorporated by reference. A holoreceptor transactivation assay and a ligand binding assay which measure the antagonist/agonist like activity of the compounds of the invention, or their ability to bind to the several retinoid receptor subtypes, respectively, are described in published PCT Application No. WO WO93/11755 (particularly on pages 30-33 and 37-41) published on Jun. 24, 1993, the specification of which is also incorporated herein by reference. A detailed experimental procedure for holoreceptor transactivations has been described by Heyman et al. Cell 68, 397-406, (1992); Allegretto et al. J. Biol. Chem. 268, 26625-26633, and Mangelsdorf et al. The Retinoids: Biology, Chemistry and Medicine, pp 319-349, Raven Press Ltd., New York, which are expressly incorporated herein by reference. The results obtained in this assay are expressed in EC50 numbers, as they are also in the chimeric receptor transactivation assay. The results of the ligand binding assay are expressed in Ki numbers. (See Cheng et al. Biochemical Pharmacology Vol. 22 pp 3099-3108, expressly incorporated herein by reference.)
(§2) Efficacy in a transactivation assay is expressed as a percentage of the maximum potency attained by the compound compared to a standard which, in this case, is the compound named (2E,4E,1′S,2′S)-3-methyl-5-[2′-methyl-2′-(5,5,8,8-tetramethyl-5,6,7,8-tetrahydro-naphthalen-2-yl)-cyclopropyl]-penta-2,4-dienoic acid. This standard compound is described in U.S. Pat. No. 6,114,533.
(§3) The specification of this application for patent is organized in several sections in accordance with structural Formulas A through F each of which discloses a group of preferred compounds within the scope of the invention. Tables that disclose the activity of certain exemplary compounds of the invention in the above-described RXR receptor transactivation and binding assays are found in the corresponding sections. […] The transactivation data pertaining to the activation of RXR receptors were obtained in the holoreceptor assay.
(§4) Generally speaking, in the tables disclosing the results of transactivation and binding assays the numbers in parentheses indicate efficacy as a percentage compared to the standard compound, (2E,4E,1′S,2′S)-3-methyl-5-[2′-methyl-2′-(5,5,8,8-tetramethyl-5,6,7,8-tetrahydro-naphthalen-2-yl)cyclopropyl]-penta-2,4-dienoic acid and the other numbers indicate the measured EC50 and K; in nanomolar concentration.

RXRα = target: T2, RXRα (Homo sapiens, UniProt P19793); test: holoreceptor transactivation assay, RXRα; type: cell-based; details: for EC50: holoreceptor transactivation, read-out: RXR Trans. EC50 α; for Emax: percentage compared to the standard compound, read-out: RXR Trans. efficacy (number in parentheses) α
T2 construct: expressed in transfected cells
T2 sequence (P19793 1-462): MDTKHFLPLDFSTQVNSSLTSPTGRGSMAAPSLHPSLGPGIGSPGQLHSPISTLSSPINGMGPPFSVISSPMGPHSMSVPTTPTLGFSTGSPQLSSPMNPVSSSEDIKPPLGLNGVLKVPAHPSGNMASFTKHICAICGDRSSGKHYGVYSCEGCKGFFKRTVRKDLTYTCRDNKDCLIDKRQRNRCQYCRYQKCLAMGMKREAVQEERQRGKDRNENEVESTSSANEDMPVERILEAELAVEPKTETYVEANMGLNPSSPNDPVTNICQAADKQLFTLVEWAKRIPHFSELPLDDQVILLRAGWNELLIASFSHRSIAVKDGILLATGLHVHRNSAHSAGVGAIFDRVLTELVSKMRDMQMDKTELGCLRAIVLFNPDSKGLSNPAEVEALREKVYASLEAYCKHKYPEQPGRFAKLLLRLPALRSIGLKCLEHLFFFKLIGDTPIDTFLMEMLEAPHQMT
In short: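 RXR activation measured in holoreceptor transactivation assays; RAR subtypes in chimeric receptor transactivation assays. Values are EC50 in nM, with efficacy as percentage of maximal activity of a reference cyclopropyl-pentadienoic acid RXR agonist.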

RXRγ = target: T3, RXRγ (UniProt P28705); test: holoreceptor transactivation assay, RXRγ; type: cell-based; details: for EC50: holoreceptor transactivation, read-out: RXR Trans. EC50 γ; for RXR Trans. efficacy (number in parentheses) γ: percentage compared to the standard compound
T3 sequence (P28705 1-463): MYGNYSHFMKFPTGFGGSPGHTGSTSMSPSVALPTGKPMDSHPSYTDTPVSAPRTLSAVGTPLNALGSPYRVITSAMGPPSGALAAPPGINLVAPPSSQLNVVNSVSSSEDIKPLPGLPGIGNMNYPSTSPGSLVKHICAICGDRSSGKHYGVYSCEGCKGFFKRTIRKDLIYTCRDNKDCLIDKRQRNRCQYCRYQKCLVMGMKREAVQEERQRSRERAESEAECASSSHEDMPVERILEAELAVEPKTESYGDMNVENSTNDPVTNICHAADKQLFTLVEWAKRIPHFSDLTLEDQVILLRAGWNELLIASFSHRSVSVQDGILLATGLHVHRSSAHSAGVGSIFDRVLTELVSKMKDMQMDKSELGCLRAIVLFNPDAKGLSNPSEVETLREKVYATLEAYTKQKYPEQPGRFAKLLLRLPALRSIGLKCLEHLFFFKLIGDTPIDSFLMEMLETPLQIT
From the text: as §1, §2, §3, §4

RARα = target: T4, RARα (Homo sapiens, UniProt P10276); test: ligand binding assay, RARα; details: read-out: RAR Bind. Ki α
T4 sequence (P10276 1-462): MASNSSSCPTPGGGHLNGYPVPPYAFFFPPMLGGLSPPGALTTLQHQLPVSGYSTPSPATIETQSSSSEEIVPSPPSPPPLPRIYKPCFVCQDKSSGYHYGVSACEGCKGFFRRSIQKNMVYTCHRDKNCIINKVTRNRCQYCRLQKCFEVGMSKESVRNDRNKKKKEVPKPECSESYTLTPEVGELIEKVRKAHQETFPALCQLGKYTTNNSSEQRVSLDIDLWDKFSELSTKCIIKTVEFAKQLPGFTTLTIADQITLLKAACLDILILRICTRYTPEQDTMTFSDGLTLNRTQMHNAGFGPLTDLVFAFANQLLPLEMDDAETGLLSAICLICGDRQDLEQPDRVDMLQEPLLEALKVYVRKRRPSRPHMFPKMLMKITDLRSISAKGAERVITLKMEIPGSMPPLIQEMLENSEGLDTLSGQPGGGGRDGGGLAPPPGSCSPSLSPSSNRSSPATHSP
In short: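 Binding of compounds to several retinoid receptor subtypes was measured. Results are given as Ki values in nanomolar concentration, derived per Cheng et al.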

Row | EC50 (RARβ) [nM] | Emax (RARβ) [%] | EC50 (RXRα) [nM] | Emax (RXRα) [%] | EC50 (RXRγ) [nM] | RXR Trans. efficacy (number in parentheses) γ (RXRγ) [%] | Ki (RARα) [nM] | SMILES
1 | 65 | 31 | 0.5 | 80 | 0.6 | 86 | 133 | CC/C(=C(F)/C=C/C(C)=C/C(=O)O)c1cc2c(cc1OC)OC(C)(C)C=C2C(C)C [Compound 130, 6-Fluoro-7-(4-isopropyl-7-methoxy-2,2-dimethyl-2H-chromen-6-yl)-3-methyl-nona-2E,4E,6E-trienoic acid]
2 | 116 | 13 | 6 | 37 | 8 | 53 | 837 | CC/C(=C(F)/C=C/C(C)=C/C(=O)O)c1cc2c(cc1OC)OC(C)(C)C=C2C(C)(C)C [Compound 131, 7-(4-tert-Butyl-7-methoxy-2,2-dimethyl-2H-chromen-6-yl)-6-fluoro-3-methyl-nona-2E,4E,6E-trienoic acid]
3 | 710 | 8 | 759 | 15 | > 1000 |  | 148 | CCOc1cc2c(cc1\C(CC)=C(F)/C=C/C(C)=C/C(=O)O)C(C)=CC(C)(C)O2 [Compound 132, 7-(7-Ethoxy-2,2,4-trimethyl-2H-chromen-6-yl)-6-fluoro-3-methyl-nona-2E,4E,6E-trienoic acid]
4 | 49 | 13 | 0.02 | 87 | 0.04 | 95 | 47 | CC/C(=C(F)/C=C/C(C)=C/C(=O)O)c1cc2c(c(Cl)c1OC)OC(C)(C)C=C2C(C)C [Compound 171, 7-(8-Chloro-4-isopropyl-7-methoxy-2,2-dimethyl-2H-chromen-6-yl)-6-fluoro-3-methyl-nona-2E,4E,6E-trienoic acid]
5 | 242 | 21 | 12 | 39 | 32 | 26 | 578 | CCOc1cc2c(cc1\C(=C/C=C/C(C)=C/C(=O)O)CC)C(C)=CCC2(C)C [Compound A-16, 7-(3-Ethoxy-5,5,8-trimethyl-5,6-dihydronaphthalen-2-yl)-3-methyl-nona-2E,4E,6Z-trienoic acid]
6 | 50 | 7 | 0.6 | 85 | 0.9 | 73 | 861 | CCOc1cc2c(cc1\C(C)=C/C=C/C(C)=C/C(=O)O)C(C(C)(C)C)=CCC2(C)C [Compound A-17, 7-(8-tert-Butyl-3-ethyloxy-5,5-dimethyl-5,6-dihydronaphthalen-2-yl)-3-methyl-octa-2E,4E,6Z-trienoic acid]
7 | 15 | 7 | 2.6 | 18 | 2.7 | 11 | 442 | CCOc1cc2c(cc1\C(=C/C=C/C(C)=C/C(=O)O)CC)C(C(C)(C)C)=CCC2(C)C [Compound A-18, 7-(8-tert-butyl-3-ethyoxy-5,5-dimethyl-5,6-dihydronaphthalen-2-yl)-3-methyl-nona-2E,4E,6Z-trienoic acid]
8 | > 10000 |  | 50 | 104 | 51 | 109 | 1600 | CCOc1cc2c(cc1\C(C)=C(F)/C=C/C(C)=C/C(=O)O)C=CCC2(C)C [Compound A-76, (2E,4E,6E)-7-(3-Ethoxy-5,5-dimethyl-5,6-dihydro-naphthalen-2-yl)-6-fluoro-3-methyl-octa-2,4.6-trienoic acid]
9 | 43 | 68 | 3 | 23 | 4 | 11 | 180 | CCOc1cc2c(cc1\C(CC)=C(F)/C=C/C(C)=C/C(=O)O)C(CC)=CCC2(C)C [Compound A-78, (2E,4E,6E)-7-(3-Ethoxy-8-ethyl-5,5-dimethyl-5,6-dihydro-naphthalen-2-yl)-6-fluoro-3-methyl-nona-2,4,6-trienoic acid]
10 | 829 | 62 | 1 | 62 | 2 | 59 | 615 | CCOc1cc2c(cc1\C(C)=C(F)/C=C/C(C)=C/C(=O)O)C(C(C)C)=CCC2(C)C [Compound A-79, (2E,4E,6E)-6-Fluoro-3-(4,4-dimethylethoxy-1-isopropyl-3,4-dihydronaphthalen-7-yl)-3-methyl-2.4,6-octa-trienoic acid]
11 | 170 | 9 | 1 | 43 | 2 | 31 | 387 | CCOc1cc2c(cc1\C(C)=C(F)/C=C/C(C)=C/C(=O)O)C(C(C)(C)C)=CCC2(C)C [Compound A-82, (2E,4E,6E)-6-Fluoro-3-(4,4-dimethyl-6-ethoxy-1-tert-butyl-3,4 dihydronaphthalen-7-yl)-3-methyl-2,4,6-octa-trienoic acid]
